According to PubChem BioAssay (NCI):
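Growth conditions: 96-well plates. Treatment: test compound, 48 hours, 5 concentrations. Analysis: linear interpolation between bracketing concentrations; unreached endpoints set to highest concentration. GI50 = concentration required for 50% inhibition of growth. TGI: total growth inhibition.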

How the values were obtained:
Test in all cases: inhibition of tumour cell growth, NCI panel, 48 h
[1] = tested on: MCF7 breast
[2] = tested on: HS 578T breast
[3] = tested on: HCT-15 colon
[4] = tested on: MDA-MB-231 breast
[5] = tested on: SK-MEL-2 melanoma
[6] = tested on: T-47D breast
[7] = tested on: NCI/ADR-RES ovarian
[8] = tested on: SF-295 CNS
[9] = tested on: SNB-75 CNS
[10] = tested on: HOP-62 NSCLC
[11] = tested on: SK-OV-3 ovarian
[12] = tested on: TK-10 renal
[13] = tested on: UO-31 renal
[14] = tested on: NCI-H23 lung
[15] = tested on: NCI-H460 lung
[16] = tested on: BT-549 breast
[17] = tested on: OVCAR-5 ovarian
[18] = tested on: M14 melanoma
[19] = tested on: SF-539 CNS
[20] = tested on: SK-MEL-5 melanoma
[21] = tested on: OVCAR-3 ovarian
[22] = tested on: MOLT-4 leukemia
[23] = tested on: OVCAR-4 ovarian
[24] = tested on: A549 NSCLC
[25] = tested on: HCC-2998 colon
[26] = tested on: SNB-19 CNS
[27] = tested on: RXF 393 renal
[28] = tested on: CAKI-1 renal
[29] = tested on: U251 CNS
[30] = tested on: CCRF-CEM leukemia
[31] = tested on: SK-MEL-28 melanoma
[32] = tested on: HT29 colon
[33] = tested on: COLO 205 colon
[34] = tested on: EKVX NSCLC
[35] = tested on: UACC-257 melanoma
[36] = tested on: A498 renal
[37] = tested on: MALME-3M melanoma
[38] = tested on: PC-3 prostate
[39] = tested on: UACC-62 melanoma
[40] = tested on: SF-268 CNS
[41] = tested on: KM12 colon
[42] = tested on: OVCAR-8 ovarian
[43] = tested on: ACHN renal
[44] = tested on: NCI-H522 lung
[45] = tested on: RPMI-8226 leukemia
[46] = tested on: SW-620 colon
[47] = tested on: NCI-H226 lung
[48] = tested on: 786-0 renal
[49] = tested on: SN12C renal
[50] = tested on: DU-145 prostate
[51] = tested on: SR leukemia
[52] = tested on: IGROV1 ovarian
[53] = tested on: MDA-MB-435
[54] = tested on: K-562 leukemia

COc1cc2c(cc1OCc1ccccc1)N=C[C@@H]1C[C@@H](F)CN1C2=O
GI50 [1]: 275 nM | TGI [1]: 2320 nM | TGI [2]: 503 nM | GI50 [3]: 282 nM | TGI [3]: 893 nM | GI50 [4]: 232 nM | TGI [4]: 553 nM | GI50 [5]: 279 nM | GI50 [6]: 577 nM | TGI [6]: 18700 nM | GI50 [7]: 265 nM | TGI [7]: 1090 nM | GI50 [8]: 678 nM | TGI [8]: 1850 nM | GI50 [9]: 894 nM | TGI [9]: > 100000 nM | GI50 [10]: 236 nM | TGI [10]: 2700 nM | GI50 [11]: 2810 nM | TGI [11]: 45800 nM | GI50 [12]: 1490 nM | TGI [12]: 4520 nM | TGI [13]: 483 nM | GI50 [14]: 195 nM | TGI [14]: 572 nM | GI50 [15]: 1920 nM | TGI [15]: 7130 nM | TGI [16]: 785 nM | GI50 [17]: 298 nM | TGI [17]: 12100 nM | GI50 [18]: 158 nM | TGI [18]: 402 nM | GI50 [19]: 1520 nM | TGI [19]: 4680 nM | GI50 [20]: 156 nM | TGI [20]: 356 nM | GI50 [21]: 315 nM | TGI [21]: 787 nM | GI50 [22]: 353 nM | TGI [22]: > 100000 nM | GI50 [23]: 2310 nM | TGI [23]: 27400 nM | GI50 [24]: 829 nM | TGI [24]: 6980 nM | GI50 [25]: 496 nM | TGI [25]: 3020 nM | GI50 [26]: 596 nM | TGI [26]: 18200 nM | GI50 [27]: 217 nM | TGI [27]: 511 nM | GI50 [28]: 6690 nM | TGI [28]: 26100 nM | GI50 [29]: 154 nM | TGI [29]: 400 nM | GI50 [30]: 355 nM | TGI [30]: 1590 nM | GI50 [31]: 748 nM | TGI [31]: 13700 nM | GI50 [32]: 322 nM | TGI [32]: > 42800 nM | GI50 [33]: 583 nM | TGI [33]: 9640 nM | GI50 [34]: 730 nM | TGI [34]: 2290 nM | GI50 [35]: 569 nM | TGI [35]: 3000 nM | GI50 [36]: 1500 nM | TGI [36]: 3480 nM | GI50 [37]: 1580 nM | TGI [37]: 3130 nM | TGI [38]: 1020 nM | GI50 [39]: 183 nM | TGI [39]: 369 nM | GI50 [40]: 184 nM | TGI [40]: 1000 nM | GI50 [41]: 1550 nM | TGI [41]: 4050 nM | GI50 [42]: 565 nM | TGI [42]: 5890 nM | GI50 [43]: 242 nM | TGI [43]: 669 nM | TGI [44]: 187 nM | GI50 [45]: < 50.1 nM | TGI [46]: 1210 nM | GI50 [47]: 197 nM | TGI [47]: 447 nM | GI50 [48]: 189 nM | TGI [48]: 661 nM | GI50 [49]: 273 nM | TGI [49]: 3400 nM | GI50 [50]: 144 nM | TGI [50]: 1660 nM | GI50 [51]: 290 nM | TGI [51]: 1460 nM | TGI [52]: 411 nM | GI50 [53]: 857 nM | TGI [53]: 2390 nM | GI50 [54]: 500 nM | TGI [54]: > 100000 nM
